Results as given in US20170226150A1, “TRITERPENOID COMPOSITION OF ANTRODIA CINNAMOMEA, PREPARATION AND ANALYSIS METHOD THEREOF” (KAOHSIUNG MEDICAL UNIVERSITY, priority 2011, published 2017).
≈ marks a conversion by molar mass, not a printed value.

Experiments:
[1] = tested on: Molt 4 human acute lymphoblastic leukemia cells; assay: Cytotoxicity test, MTT colorimetric method, Molt 4; type: cell-based
Protocol: (§1) The cytotoxicity test of the obtained major ergostane triterpenoid compounds (zhankuic acid A, zhankuic acid C, antcin C and antcin K) and their stereoisomeric pure compounds (compounds E1 to E6 and E9 to E10) were performed on three leukemia cell lines using MTT (3-(4,5-dimethylthiazol-2-yl)-2,5-diphenyltetrazolium bromide) colorimetric method, and the results were referred to Table 8.

[2] = tested on: CCRF-CEM human acute lymphoblastic leukemia cells; assay: Cytotoxicity test, MTT colorimetric method, CCRF-CEM; type: cell-based
Protocol: as §1

[3] = tested on: HL 60 human promyelocytic leukemia cells; assay: Cytotoxicity test, MTT colorimetric method, HL 60; type: cell-based
Protocol: as §1

[4] = Solubility in solvents for optical rotation measurement; type: physicochemical; settings: methanol or ethanol
Protocol: After determining the absolute configuration, we tried to measure the optical rotation aiming to complete the spectral profile for the isolated compounds. In a previous report, the mixture form of zhankuic acid A was dissolved in methanol to measure its optical rotation. […] The solubility of compounds E9 and E10 improved through using acetone-methanol mixture. Considering compounds solubility and the convenience of collecting physical and spectral data using single solvent, pyridine was used in optical rotation experiment. The optical rotation of compound E9 was [α]D^25+32.1 (c 0.70, pyridine), and that of compound E10 was [α]D^25+9.0 (c 0.84, pyridine).

Compound | IC50 (μg/ml) Molt 4 [1] | IC50 (μg/ml) CCRF-CEM [2] | IC50 (μg/ml) HL 60 [3] | solubility in single solvent [4]
antcin K | >80 µg/mL | >80 µg/mL | >80 µg/mL | –
C=C(CC[C@@H](C)[C@H]1CC[C@H]2C3=C(C(=O)C[C@]12C)[C@@]1(C)CC[C@@H](O)[C@](C)(O)[C@@H]1C[C@@H]3O)[C@@H](C)C(=O)O [Compound E2, 3α,4β,7β-trihydroxy-4α-methylergosta-8,24(28)-dien-11-on-25R-26-oic acid] | >80 µg/mL | >80 µg/mL | >80 µg/mL | –
C=C(CC[C@@H](C)[C@H]1CC[C@H]2C3=C(C(=O)C[C@]12C)[C@@]1(C)CCC(=O)[C@@H](C)[C@@H]1CC3=O)C(C)C(=O)O (some centres unmarked) [Zhankuic acid A, zhankuic acid A] | 53.23 ± 3.88 µg/mL (≈ 114 µM) | 47.04 ± 6.191 µg/mL (≈ 100 µM) | 69.98 ± 18.98 µg/mL (≈ 149 µM) | –
C=C(CC[C@@H](C)[C@H]1CC[C@H]2C3=C(C(=O)[C@H](O)[C@]12C)[C@@]1(C)CC[C@@H](O)[C@@H](C)C1CC3=O)[C@@H](C)C(=O)O (stereo partly drawn) [Compound E5, 3α,12α-dihydroxy-4α-methylergosta-8,24(28)-dien-7,11-dion-25R-26-oic acid] | >80 µg/mL | >80 µg/mL | >80 µg/mL | –
C=C(CC[C@@H](C)[C@H]1CC[C@H]2C3=C(C(=O)[C@H](O)[C@]12C)[C@@]1(C)CC[C@@H](O)[C@@H](C)C1CC3=O)[C@H](C)C(=O)O (stereo partly drawn) [Compound E6, 3α,12α-dihydroxy-4α-methylergosta-8,24(28)-dien-7,11-dion-25S-26-oic acid] | >80 µg/mL | >80 µg/mL | >80 µg/mL | –
C=C(CC[C@@H](C)[C@H]1CC[C@H]2C3=C(C(=O)C[C@]12C)[C@@]1(C)CCC(=O)[C@@H](C)C1CC3=O)[C@@H](C)C(=O)O (stereo partly drawn) [Compound E10, 4α-methylergosta-8,24(28)-dien-3,7,11-trion-25R-26-oic acid] | 16.44 ± 3.77 µg/mL (≈ 35.1 µM) | 22.90 ± 7.60 µg/mL (≈ 48.9 µM) | 23.32 ± 1.60 µg/mL (≈ 49.8 µM) | not sufficient
C=C(CC[C@@H](C)[C@H]1CC[C@H]2C3=C(C(=O)C[C@]12C)[C@@]1(C)CCC(=O)[C@@H](C)C1C[C@@H]3O)[C@H](C)C(=O)O (stereo partly drawn) [Compound E3, 7β-hydroxy-4α-methylergosta-8,24(28)-dien-3,11-dion-25S-26-oic acid] | 77.04 ± 2.78 µg/mL (≈ 164 µM) | 30.681 ± 5.30 µg/mL (≈ 65.2 µM) | >80 µg/mL | –
C=C(CC[C@@H](C)[C@H]1CC[C@H]2C3=C(C(=O)[C@H](O)[C@]12C)[C@@]1(C)CC[C@@H](O)[C@@H](C)[C@@H]1CC3=O)C(C)C(=O)O (some centres unmarked) [Zhankuic acid C, zhankuic acid C] | >80 µg/mL | >80 µg/mL | >80 µg/mL | –
antcin C | 55.02 ± 3.34 µg/mL | 28.82 ± 6.79 µg/mL | 47.02 ± 4.45 µg/mL | –
C=C(CC[C@@H](C)[C@H]1CC[C@H]2C3=C(C(=O)C[C@]12C)[C@@]1(C)CCC(=O)[C@@H](C)C1CC3=O)[C@H](C)C(=O)O (stereo partly drawn) [Compound E9, 4α-methylergosta-8,24(28)-dien-3,7,11-trion-25S-26-oic acid] | 42.16 ± 2.33 µg/mL (≈ 90 µM) | 21.99 ± 7.91 µg/mL (≈ 46.9 µM) | 54.67 ± 8.14 µg/mL (≈ 117 µM) | not sufficient
C=C(CC[C@@H](C)[C@H]1CC[C@H]2C3=C(C(=O)C[C@]12C)[C@@]1(C)CCC(=O)[C@@H](C)C1C[C@@H]3O)[C@@H](C)C(=O)O (stereo partly drawn) [Compound E4, 7β-hydroxy-4α-methylergosta-8,24(28)-dien-3,11-dion-25R-26-oic acid] | 54.28 ± 1.96 µg/mL (≈ 115 µM) | 27.94 ± 6.44 µg/mL (≈ 59.4 µM) | >80 µg/mL | –
3α,4β,7β-trihydroxy-4α-methylergosta-8,24(28)-dien-11-on-25S-26-oic acid [Compound E1] | >80 µg/mL | >80 µg/mL | >80 µg/mL | –
